Experiment [1] addresses T1, human transferrin receptor (hTfR) (Homo sapiens, UniProt P02786). Nature of the experiment: SPR measurement under pH 6.0 conditions (Biacore T200, NTA chip, immobilized hTfR). It counts as binding. To be noted: pH 6.0, single-cycle kinetics; read-out: hTfR SPR pH6.0 KD. (Surface plasmon resonance follows binding to a sensor surface in real time, without labels.)
Experiment [2] deals with T1, human transferrin receptor (hTfR). The experiment is described as follows: SPR measurement under pH 7.4 conditions (Biacore T200, CM3 chip, hTfR captured by His Tag antibody). Format: binding. To be noted: pH 7.4, single-cycle kinetics; read-out: hTfR SPR pH7.4 KD.

Numbered stars: 1 amine (or outer) side, 2 acyl side, 3 side chain; on linkers, the order of the positions; unused ones are H or OH. Bridge positions count the residues as written; N and C are the ends. Square brackets hold non-standard residues; d marks the D form. Side chains are listed from the residue outwards. Peptide text beside a SMILES is read from it. * marks the point of attachment. Trp(1-CH2COOH) = N[C@@H](Cc1cn(CC(=O)O)c2ccccc12)C(=O)O; CH2CON(CH2CH2)2NCH2COOH = O=C(O)CN1CCN(C(=O)C*)CC1; Nle(6-morpholino) = N[C@@H](CCCCN1CCOCC1)C(=O)O; Trp(7-aza) = N[C@@H](Cc1c[nH]c2ncccc12)C(=O)O; NMePhe(3-Cl) = CN[C@@H](Cc1cccc(Cl)c1)C(=O)O; Piperazinyl(4-CH2COOH) = O=C(O)CN1CCN(*)CC1; 3Pal(6-NH2) = Nc1ccc(C[C@H](N)C(=O)O)cn1; NMeY = CN[C@@H](Cc1ccc(O)cc1)C(=O)O; 4Pal = N[C@@H](Cc1ccncc1)C(=O)O; PEG4 = NCCOCCOCCOCCOCCC(=O)O; Carboxymethyl = O=C(O)C*; CO = O=C([*:1])[*:2]

T1 sequence (P02786 whole entry): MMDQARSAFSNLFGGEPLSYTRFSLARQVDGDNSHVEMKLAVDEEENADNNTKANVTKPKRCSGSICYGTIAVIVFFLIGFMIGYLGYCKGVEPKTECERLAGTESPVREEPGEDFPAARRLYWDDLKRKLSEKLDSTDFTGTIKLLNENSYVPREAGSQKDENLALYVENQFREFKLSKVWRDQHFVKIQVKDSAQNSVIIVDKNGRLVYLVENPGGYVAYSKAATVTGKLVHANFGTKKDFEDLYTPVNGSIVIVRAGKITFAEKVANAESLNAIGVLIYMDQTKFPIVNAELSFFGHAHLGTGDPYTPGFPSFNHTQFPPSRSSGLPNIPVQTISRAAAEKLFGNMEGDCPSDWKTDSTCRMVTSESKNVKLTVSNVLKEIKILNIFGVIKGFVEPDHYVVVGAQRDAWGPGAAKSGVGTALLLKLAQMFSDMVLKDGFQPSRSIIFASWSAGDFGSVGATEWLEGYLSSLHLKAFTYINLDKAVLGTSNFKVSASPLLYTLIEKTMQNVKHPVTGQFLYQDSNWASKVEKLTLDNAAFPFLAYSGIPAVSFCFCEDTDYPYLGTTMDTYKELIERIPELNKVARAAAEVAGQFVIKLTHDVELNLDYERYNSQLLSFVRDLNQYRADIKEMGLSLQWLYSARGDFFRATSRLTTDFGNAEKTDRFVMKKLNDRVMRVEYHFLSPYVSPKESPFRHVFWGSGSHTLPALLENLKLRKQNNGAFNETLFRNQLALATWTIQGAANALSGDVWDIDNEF

What is called Kd is the free concentration of one partner at which half of the binding sites on the other are occupied at equilibrium, for simple one-to-one binding. With `CC[C@H](C)[C@@H]1NC(=O)[C@H](Cc2ccc(OCC(=O)O)cc2)NC(=O)[C@H](Cc2ccc(N)nc2)NC(=O)[C@H](CC(N)=O)NC(=O)[C@H](Cc2c[nH]c3ncccc23)NC(=O)[C@H](C(C)C)NC(=O)[C@H](Cc2cccc(Cl)c2)N(C)C(=O)[C@H](C(C)C)NC(=O)[C@H](C)NC(=O)CSC[C@@H](C(=O)NCCOCCOCCOCCOCCC(N)=O)NC(=O)[C@H](Cc2ccc(O)cc2)N(C)C(=O)[C@H](Cc2ccncc2)NC(=O)[C@H](CCCCN2CCOCC2)NC(=O)[C@H](CCCCN2CCOCC2)NC(=O)[C@H]([C@@H](C)CC)NC1=O` [compound 7] ({CH2CO}-AV[NMePhe(3-Cl)]V[Trp(7-aza)]N[3Pal(6-NH2)]Y(Carboxymethyl)II[Nle(6-morpholino)][Nle(6-morpholino)][4Pal][NMeY]C[PEG4]-NH2; thioether N-15), the Kd in experiment [1] came out at 89.8 nM; in experiment [2], 16.3 nM.
In the case of `CC[C@H](C)[C@@H]1NC(=O)[C@H](Cc2ccc(OC)cc2)NC(=O)[C@H](Cc2ccc(N)nc2)NC(=O)[C@H](CC(N)=O)NC(=O)[C@H](Cc2cn(CC(=O)O)c3ccccc23)NC(=O)[C@H](C(C)C)NC(=O)[C@H](Cc2cccc(Cl)c2)N(C)C(=O)[C@H](C(C)C)NC(=O)[C@H](C)NC(=O)CSC[C@@H](C(=O)NCCOCCOCCOCCOCCC(N)=O)NC(=O)[C@H](Cc2ccc(O)cc2)N(C)C(=O)[C@H](Cc2ccncc2)NC(=O)[C@H](CCCCNC(=O)N2CCN(CC(=O)O)CC2)NC(=O)[C@H](CCCCN2CCOCC2)NC(=O)[C@H]([C@@H](C)CC)NC1=O` [compound 8] ({CH2CO}-AV[NMePhe(3-Cl)]V[Trp(1-CH2COOH)]N[3Pal(6-NH2)]Y(Me)II[Nle(6-morpholino)]K([CO-Piperazinyl(4-CH2COOH)])[4Pal][NMeY]C[PEG4]-NH2; thioether N-15), the Kd in experiment [1] was 113 nM; in experiment [2], 10.7 nM.
For `CC[C@H](C)[C@@H]1NC(=O)[C@H](Cc2ccc(OCC(=O)O)cc2)NC(=O)[C@H](Cc2ccc(N)nc2)NC(=O)[C@H](CC(N)=O)NC(=O)[C@H](Cc2c[nH]c3ncccc23)NC(=O)[C@H](C(C)C)NC(=O)[C@H](Cc2cccc(Cl)c2)N(C)C(=O)[C@H](C(C)C)NC(=O)[C@H](C)NC(=O)CSC[C@@H](C(=O)NCCOCCOCCOCCOCCC(N)=O)NC(=O)[C@H](Cc2ccc(O)cc2)N(C)C(=O)[C@H](Cc2ccncc2)NC(=O)[C@H](CCCCNC(=O)N2CCN(CC(=O)O)CC2)NC(=O)[C@H](CCCCN2CCOCC2)NC(=O)[C@H]([C@@H](C)CC)NC1=O` [compound 9] ({CH2CO}-AV[NMePhe(3-Cl)]V[Trp(7-aza)]N[3Pal(6-NH2)]Y(Carboxymethyl)II[Nle(6-morpholino)]K([CO-Piperazinyl(4-CH2COOH)])[4Pal][NMeY]C[PEG4]-NH2; thioether N-15), the Kd in experiment [1] was found to be 774 nM; in experiment [2] it was 29.1 nM.
Regarding `CC[C@H](C)[C@@H]1NC(=O)[C@H](Cc2ccc(OC)cc2)NC(=O)[C@H](Cc2ccc(N)nc2)NC(=O)[C@H](CC(N)=O)NC(=O)[C@H](Cc2c[nH]c3ncccc23)NC(=O)[C@H](C(C)C)NC(=O)[C@H](Cc2cccc(Cl)c2)N(C)C(=O)[C@H](C(C)C)NC(=O)[C@H](C)NC(=O)CSC[C@@H](C(=O)NCCOCCOCCOCCOCCC(N)=O)NC(=O)[C@H](Cc2ccc(O)cc2)N(C)C(=O)[C@H](Cc2ccncc2)NC(=O)[C@H](CCCNC(=N)N)NC(=O)[C@H](CCC(=O)NC[C@H](O)[C@@H](O)[C@H](O)[C@H](O)CO)NC(=O)[C@H]([C@@H](C)CC)NC1=O` [compound 10], the results for the Kd in experiment [1] and in experiment [2] were 36.6 nM and 2.5 nM, respectively.
In the same order, the values of `CC[C@H](C)[C@@H]1NC(=O)[C@H](Cc2ccc(OC)cc2)NC(=O)[C@H](Cc2ccc(N)nc2)NC(=O)[C@H](CC(N)=O)NC(=O)[C@H](Cc2c[nH]c3ncccc23)NC(=O)[C@H](C(C)C)NC(=O)[C@H](Cc2cccc(Cl)c2)N(C)C(=O)[C@H](C(C)C)NC(=O)[C@H](C)NC(=O)CSC[C@@H](C(=O)NCCOCCOCCOCCOCCC(N)=O)NC(=O)[C@H](Cc2ccc(O)cc2)N(C)C(=O)[C@H](Cc2ccncc2)NC(=O)[C@H](CCCNC(=N)N)NC(=O)[C@H](CCC(=O)NCCOCCOCCOCCOCCOCCOCCOCCOC)NC(=O)[C@H]([C@@H](C)CC)NC1=O` [compound 11] are 110 nM and 7.1 nM.
As for `CC[C@H](C)[C@@H]1NC(=O)[C@H](Cc2ccc(OCC(=O)NC[C@H](O)[C@@H](O)[C@H](O)[C@H](O)CO)cc2)NC(=O)[C@H](Cc2ccc(N)nc2)NC(=O)[C@H](CC(N)=O)NC(=O)[C@H](Cc2c[nH]c3ncccc23)NC(=O)[C@H](C(C)C)NC(=O)[C@H](Cc2cccc(Cl)c2)N(C)C(=O)[C@H](C(C)C)NC(=O)[C@H](C)NC(=O)CSC[C@@H](C(=O)NCCOCCOCCOCCOCCC(N)=O)NC(=O)[C@H](Cc2ccc(O)cc2)N(C)C(=O)[C@H](Cc2ccncc2)NC(=O)[C@H](CCCNC(=N)N)NC(=O)[C@H](CCC(=O)NC[C@H](O)[C@@H](O)[C@H](O)[C@H](O)CO)NC(=O)[C@H]([C@@H](C)CC)NC1=O` [compound 12], the values for the Kd in experiment [1] and in experiment [2] were 137 nM and 7.12 nM, respectively.
For `CC[C@H](C)[C@@H]1NC(=O)[C@H](Cc2ccc(OCC(=O)O)cc2)NC(=O)[C@H](Cc2ccc(N)nc2)NC(=O)[C@H](CC(N)=O)NC(=O)[C@H](Cc2c[nH]c3ncccc23)NC(=O)[C@H](C(C)C)NC(=O)[C@H](Cc2cccc(Cl)c2)N(C)C(=O)[C@H](C(C)C)NC(=O)[C@H](C)NC(=O)CSC[C@@H](C(=O)NCCOCCOCCOCCOCCC(N)=O)NC(=O)[C@H](Cc2ccc(O)cc2)N(C)C(=O)[C@H](Cc2ccncc2)NC(=O)[C@H](CCCNC(=N)N)NC(=O)[C@H](CCCCNC(=O)N2CCN(CC(=O)O)CC2)NC(=O)[C@H]([C@@H](C)CC)NC1=O` [compound 14] ({CH2CO}-AV[NMePhe(3-Cl)]V[Trp(7-aza)]N[3Pal(6-NH2)]Y(Carboxymethyl)IIK([CO-Piperazinyl(4-CH2COOH)])R[4Pal][NMeY]C[PEG4]-NH2; thioether N-15), the figures for the Kd in experiment [1] and in experiment [2] were 108 nM and 30.8 nM, respectively.
Taken in the same sequence, the figures for `CC[C@H](C)[C@@H]1NC(=O)[C@H](Cc2ccc(OCC(=O)O)cc2)NC(=O)[C@H](Cc2ccc(N)nc2)NC(=O)[C@H](CC(N)=O)NC(=O)[C@H](Cc2c[nH]c3ncccc23)NC(=O)[C@H](C(C)C)NC(=O)[C@H](Cc2cccc(Cl)c2)N(C)C(=O)[C@H](C(C)C)NC(=O)[C@H](C)NC(=O)CSC[C@@H](C(=O)NCCOCCOCCOCCOCCC(N)=O)NC(=O)[C@H](Cc2ccc(O)cc2)N(C)C(=O)[C@H](Cc2ccncc2)NC(=O)[C@H](CCCCN2CCOCC2)NC(=O)[C@H](CCCCNC(=O)N2CCN(CC(=O)O)CC2)NC(=O)[C@H]([C@@H](C)CC)NC1=O` [compound 15] ({CH2CO}-AV[NMePhe(3-Cl)]V[Trp(7-aza)]N[3Pal(6-NH2)]Y(Carboxymethyl)IIK([CO-Piperazinyl(4-CH2COOH)])[Nle(6-morpholino)][4Pal][NMeY]C[PEG4]-NH2; thioether N-15) were 102 nM and 15.9 nM.
As to `CC[C@H](C)[C@@H]1NC(=O)[C@H](Cc2ccc(OCC(=O)N3CCN(CC(=O)O)CC3)cc2)NC(=O)[C@H](Cc2ccc(O)cc2)NC(=O)[C@H](CC(N)=O)NC(=O)[C@H](Cc2c[nH]c3ncccc23)NC(=O)[C@H](C(C)C)NC(=O)[C@H](Cc2cccc(Cl)c2)N(C)C(=O)[C@H](C(C)C)NC(=O)[C@H](C)NC(=O)CSC[C@@H](C(=O)NCCOCCOCCOCCOCCC(N)=O)NC(=O)[C@H](Cc2ccc(O)cc2)N(C)C(=O)[C@H](Cc2ccncc2)NC(=O)[C@H](CCCNC(=N)N)NC(=O)[C@H](CCC(N)=O)NC(=O)[C@H]([C@@H](C)CC)NC1=O` [compound 16], the Kd in experiment [1] is 40.3 nM; in experiment [2] it was 2.94 nM.
In the case of `CC[C@H](C)[C@@H]1NC(=O)[C@H](Cc2ccc(OCC(=O)N3CCN(CC(=O)O)CC3)cc2)NC(=O)[C@H](Cc2ccc(N)nc2)NC(=O)[C@H](CC(N)=O)NC(=O)[C@H](Cc2cn(CC(=O)O)c3ccccc23)NC(=O)[C@H](C(C)C)NC(=O)[C@H](Cc2cccc(Cl)c2)N(C)C(=O)[C@H](C(C)C)NC(=O)[C@H](C)NC(=O)CSC[C@@H](C(=O)NCCOCCOCCOCCOCCC(N)=O)NC(=O)[C@H](Cc2ccc(O)cc2)N(C)C(=O)[C@H](Cc2ccncc2)NC(=O)[C@H](CCCCN2CCOCC2)NC(=O)[C@H](CCCCNC(=O)N2CCN(CC(=O)O)CC2)NC(=O)[C@H]([C@@H](C)CC)NC1=O` [compound 17] ({CH2CO}-AV[NMePhe(3-Cl)]V[Trp(1-CH2COOH)]N[3Pal(6-NH2)]Y(CH2CON(CH2CH2)2NCH2COOH)IIK([CO-Piperazinyl(4-CH2COOH)])[Nle(6-morpholino)][4Pal][NMeY]C[PEG4]-NH2; thioether N-15), the Kd amounted to 501 nM in experiment [1] and 4.25 nM in experiment [2].
Consider `CC[C@H](C)[C@@H]1NC(=O)[C@H](Cc2ccc(OCC(=O)N3CCN(CC(=O)O)CC3)cc2)NC(=O)[C@H](Cc2ccc(O)cc2)NC(=O)[C@H](CC(N)=O)NC(=O)[C@H](Cc2c[nH]c3ncccc23)NC(=O)[C@H](C(C)C)NC(=O)[C@H](Cc2cccc(Cl)c2)N(C)C(=O)[C@H](C(C)C)NC(=O)[C@H](C)NC(=O)CSC[C@@H](C(=O)NCCOCCOCCOCCOCCC(N)=O)NC(=O)[C@H](Cc2ccc(O)cc2)N(C)C(=O)[C@H](Cc2ccncc2)NC(=O)[C@H](CCCNC(=N)N)NC(=O)[C@H](CCCCNC(=O)N2CCN(CC(=O)O)CC2)NC(=O)[C@H]([C@@H](C)CC)NC1=O` [compound 18], for which the Kd in experiment [1] is 30 nM; in experiment [2] it was 1.88 nM.
As for `CC[C@H](C)[C@@H]1NC(=O)[C@H](Cc2ccc(OCC(=O)N3CCN(CC(=O)O)CC3)cc2)NC(=O)[C@H](Cc2ccc(O)cc2)NC(=O)[C@H](CC(N)=O)NC(=O)[C@H](Cc2c[nH]c3ncccc23)NC(=O)[C@H](C(C)C)NC(=O)[C@H](Cc2cccc(Cl)c2)N(C)C(=O)[C@H](C(C)C)NC(=O)[C@H](C)NC(=O)CSC[C@@H](C(=O)NCCOCCOCCOCCOCCC(N)=O)NC(=O)[C@H](Cc2ccc(O)cc2)N(C)C(=O)[C@H](Cc2ccncc2)NC(=O)[C@H](CCCCN2CCOCC2)NC(=O)[C@H](CCCCNC(=O)N2CCN(CC(=O)O)CC2)NC(=O)[C@H]([C@@H](C)CC)NC1=O` [compound 19] ({CH2CO}-AV[NMePhe(3-Cl)]V[Trp(7-aza)]NYY(CH2CON(CH2CH2)2NCH2COOH)IIK([CO-Piperazinyl(4-CH2COOH)])[Nle(6-morpholino)][4Pal][NMeY]C[PEG4]-NH2; thioether N-15), the Kd stood at 7.92 nM in experiment [1] and 4.82 nM in experiment [2].
